Literature values in patent US20230301938A1 (priority 2022, published 2023).
Read-outs that look alike come from different tables or passages of the source.

How the values were obtained:
[1] = system: lipopolysaccharide-activated macrophages
[2] = system: myocardial ischemia; conditions: 10 mg/kg intravenously then 10 mg/kg/h
[3] = system: macrophage foam cells
[4] = system: ulcerative colitis (UC)
[5] = system: LPS-challenged macrophages; conditions: pre-incubated 6 h, 0 to 50 µM, then LPS 24 h
[6] = system: Nrf2 (+/+) primary peritoneal macrophages
[7] = system: LPS-induced ARDS
[8] = system: Nrf2 (-/-) primary peritoneal macrophages
[9] = system: lipopolysaccharide-induced inflammatory reactions
[10] = system: sepsis; conditions: for concentration of IL-1α: controls 1187.0 ± 278.64
[11] = system: human umbilical vein VECs (HUVECs)
[12] = system: endothelium of atherosclerotic plaque; conditions: apoE(-/-) mice, injection
[13] = 50 and 100 mg/kg/day, vs MD group

O=C(O[C@@H]1Cc2c(O)cc(O)cc2O[C@@H]1c1cc(O)c(O)c(O)c1)c1cc(O)c(O)c(O)c1 [EGCG]
NO production ([1]; cotreated with LPS): Inhibition | activation of nuclear factor-kappaB ([1]; electrophoretic mobility shift assay): blocked | myeloperoxidase activity [2]: reduced | myocardial damage [2]: reduced | plasma IL-6 levels [2]: decreased | plasma creatine phosphokinase levels [2]: decreased | TNF-α-induced nuclear factor-κB (NF-κB) activity [3]: inhibition | TNF-α-induced downregulation of ABCA1 and decrease in cholesterol efflux to apoA1 ([3]; pretreatment): attenuated | disease activity index (DAI) [4, 13]: decreased | spleen index (SI) [4, 13]: decreased | HIF-1α protein expression in the colon ([4]; mouse, in vivo): decreasing | STAT3 protein expression in the colon ([4]; mouse, in vivo): decreasing | plasma levels of IL-10 ([4]; mouse, in vivo): increasing | plasma levels of TGF-β1 ([4]; mouse, in vivo): increasing | release of IL-6 ([4]; plasma): reduce | release of IL-17 ([4]; plasma): reduce

C[S+]([O-])CCCCN=C=S (stereo not drawn) [sulforaphane, 1-isothiocyanato-4-(methylsulfinyl)-butane]
expression of NO and cytokines [5]: able to prevent | HO-1 expression ([6]; LPS-stimulated): significantly augmented | LPS-stimulated mRNA expression, protein expression and production of TNF-alpha, IL-1beta, COX-2 and iNOS ([6]; pretreatment): potently inhibited | inducible nitric oxide synthase (iNOS) activity ([7]; 50 mg/kg): significantly inhibited | nuclear factor-κB protein expression ([7]; 50 mg/kg): significantly decreased | prostaglandin E2 (PGE2) production ([7]; 50 mg/kg): significantly inhibited | serum levels of interleukin-6 (IL-6) ([7]; 50 mg/kg, ELISA): significantly decreased | serum levels of tumor necrosis factor-α (TNF-α) ([7]; 50 mg/kg, ELISA): significantly decreased | lactate dehydrogenase (LDH) activity ([7]; 50 mg/kg, LPS 5 mg/kg): significantly decreased | wet-to-dry ratio of the lungs ([7]; 50 mg/kg, LPS 5 mg/kg): significantly decreased | Nrf2/antioxidant response element (ARE) pathway ([7]; pre-treatment): activated | cyclooxygenase-2 (COX-2) protein expression ([7]; western blot): significantly inhibited | matrix metalloproteinase-9 (MMP-9) protein expression ([7]; western blot): significantly inhibited | anti-inflammatory effect [8]: attenuated

CC1=CC(=O)C(C(C)C)=CC1=O [thymoquinone]
lipopolysaccharide-induced inflammatory reactions [9]: suppressed effectively | concentration of nitric oxide ([9]; marker of inflammation): reduced significantly | concentration of IL-1α ([10]; 0.75 mg/kg dose): 310.8 ± 70.93 pg/mL | IL-10 levels ([10]; 0.75 mg/kg, controls 5505.2 ± 333.96): 2885.0 ± 553.98 pg/mL | concentration of IL-1α ([10]; 1 mg/kg group): 428.3 ± 71.32 pg/mL | levels of IL-2 ([10]; P=0.0851): relatively lower levels | levels of TNF-α ([10]; P=0.1817): relatively lower levels | reduction of mortality ([10]; mice, sepsis): 80-90% | renal and hepatic biomarker profiles ([10]; mice, sepsis): improved

trans-3,5-dimethoxy-4-hydroxystilbene [pterostilbene]
oxLDL-induced cell shrinkage, chromatin condensation, nuclear fragmentation, and cell apoptosis ([11]; HUVECs, oxLDL 200 µg/ml): protected against such injuries | expression of lectin-like oxLDL receptor-1 (LOX-1) ([11]; in vitro and in vivo): inhibited | number of TUNEL-positive cells in the endothelium of atherosclerotic plaque [12]: strongly decreased
